The test system of series [1] is Mycobacterium tuberculosis. Description: Antimycobacterial activity against Mycobacterium tuberculosis H37Rv ATCC 27294 assessed as inhibition of bacterial growth measured after 7 days by resazurin microtitre assay. Type of series: functional. Particulars: H37Rv ATCC 27294, 168 h, time 7 day. (In general: Resazurin is reduced to fluorescent resorufin, in cell work by metabolically active cells.)

Series [2] has as its system Escherichia coli. As to the kind of experiment: Antibacterial activity against Escherichia coli ATCC 25922 assessed as reduction in bacterial growth incubated for 16 to 18 hrs by microtiter plate assay. Type of series: functional. Conditions: time 16-18 hrs.
Series [3] deals with Staphylococcus aureus. Description: Antibacterial activity against Staphylococcus aureus ATCC 29213 assessed as reduction in bacterial growth incubated for 16 to 18 hrs by microtiter plate assay. Type of series: functional. Particulars: time 16-18 hrs.
Series [4] concerns Klebsiella pneumoniae. Description: Antibacterial activity against Klebsiella pneumoniae BAA 1705 assessed as reduction in bacterial growth incubated for 16 to 18 hrs by microtiter plate assay. It counts as functional. Conditions: time 16-18 hrs.
Series [5] deals with Acinetobacter baumannii. As to the kind of experiment: Antibacterial activity against Acinetobacter baumannii BAA 1605 assessed as reduction in bacterial growth incubated for 16 to 18 hrs by microtiter plate assay. It counts as functional. Particulars: time 16-18 hrs.
In series [6] the test system is Pseudomonas aeruginosa. Description: Antibacterial activity against Pseudomonas aeruginosa ATCC 27853 assessed as reduction in bacterial growth incubated for 16 to 18 hrs by microtiter plate assay. It counts as functional. Conditions: time 16-18 hrs.
In series [7] the test system is Mycobacteroides abscessus. Description: Antimycobacterial activity against Mycobacterium abscessus ATCC 19977 assessed as inhibition of bacterial growth after 48 hrs by resazurin microtitre assay. Type of series: functional.
In series [8] the test system is Mycolicibacterium fortuitum. Description: Antimycobacterial activity against Mycobacterium fortuitum ATCC 6841 assessed as inhibition of bacterial growth after 48 hrs by resazurin microtitre assay. Type of series: functional.
Series [9] deals with Mycobacteroides chelonae. As to the kind of experiment: Antimycobacterial activity against Mycobacterium chelonae ATCC 6841 assessed as inhibition of bacterial growth after 48 hrs by resazurin microtitre assay. Type of series: functional.
Series [10] is described as follows: Cytotoxicity against African green monkey Vero cells assessed as reduction in cell viability measured after 72 hrs by MTT assay. Type of series: toxicity, cell-based. Particulars: chlorocebus sabaeus.
Series [11] is described as follows: Selectivity index, ratio of CC50 for African green monkey Vero cells to MIC for Mycobacterium tuberculosis H37Rv ATCC 27294. It counts as toxicity. Particulars: read-out: Selectivity Index.

Values after ≈ are worked out from the molar mass of the structure shown.

For orientation: MIC means the lowest concentration found to suppress growth. Usually CC50 stands for the concentration that lowers cell viability or growth by half.

Turning to `O=C(/C=C/c1ccc([N+](=O)[O-])o1)c1cccc(Nc2nc3ccccc3o2)c1`, the MIC is 0.06 µg/mL (≈ 0.16 µM) in series [1]; greater than 64 µg/mL in series [2]; 16 µg/mL (≈ 42.6 µM) in series [3]; greater than 64 µg/mL in series [4]; greater than 64 µg/mL in series [5]; greater than 64 µg/mL in series [6]. Besides, the MIC in series [7], in [8] and in series [9] was greater than 64 µg/mL throughout. In addition, the CC50 at 72 h in series [10] came out at 5 µg/mL (≈ 13.3 µM). For the same compound, the selectivity ratio in [11] amounted to 80.

On to `CC(C)(C)c1ccc2oc(Nc3ccc(C(=O)/C=C/c4ccc([N+](=O)[O-])o4)cc3)nc2c1`, for which the MIC in series [1] is 0.5 µg/mL (≈ 1.16 µM); in series [2] it was greater than 64 µg/mL; in series [3] it was 8 µg/mL (≈ 18.5 µM); in series [4] it was greater than 64 µg/mL; in series [5] it was greater than 64 µg/mL; in series [6], greater than 64 µg/mL. In addition, the MIC in [7], in series [8] and in [9] was greater than 64 µg/mL each time. In addition, the CC50 at 72 h in series [10] amounted to 5 µg/mL (≈ 11.6 µM). Moreover, the selectivity ratio in series [11] was less than 10.

For `O=C(/C=C/c1ccco1)c1ccc(Nc2nc3ccccc3o2)cc1`, the MIC in series [1] is 32 µg/mL (≈ 96.9 µM); in series [2] it was greater than 64 µg/mL; in series [3], greater than 64 µg/mL; in series [4], greater than 64 µg/mL; in series [5], greater than 64 µg/mL; in series [6], greater than 64 µg/mL. For the same compound, the minimum inhibitory concentration (MIC) in [7], in series [8] and in series [9] was greater than 64 µg/mL in each case.

Consider `COc1ccc(C(=O)/C=C/c2ccc([N+](=O)[O-])o2)cc1Nc1nc2ccccc2o1`, for which the MIC in series [1] is 0.25 µg/mL (≈ 0.617 µM); in [2], greater than 64 µg/mL; in [3], 8 µg/mL (≈ 19.7 µM); in [4] it was greater than 64 µg/mL; in [5] it was greater than 64 µg/mL; in series [6] it was greater than 64 µg/mL. Further, the MIC in series [7], in series [8] and in series [9] was greater than 64 µg/mL throughout. In addition, the CC50 at 72 h in series [10] was 5 µg/mL (≈ 12.3 µM). Moreover, the selectivity ratio in series [11] was less than 10.

On to `O=C(/C=C/c1ccncc1)c1ccc(Nc2nc3ccccc3o2)cc1`, for which the MIC in [1] is 16 µg/mL (≈ 46.9 µM); in series [2], greater than 64 µg/mL; in series [3], greater than 64 µg/mL; in series [4], greater than 64 µg/mL; in series [5], greater than 64 µg/mL; in [6], greater than 64 µg/mL. In addition, the MIC in series [7], in series [8] and in [9] was greater than 64 µg/mL in each case.

Take `COc1cc(/C=C/C(=O)c2ccc(Nc3nc4cc([N+](=O)[O-])ccc4o3)cc2)cc(OC)c1OC`: the MIC is 16 µg/mL (≈ 33.7 µM) in [1]; greater than 64 µg/mL in series [2]; greater than 64 µg/mL in [3]; greater than 64 µg/mL in series [4]; greater than 64 µg/mL in series [5]; greater than 64 µg/mL in [6]. Moreover, the MIC in series [7], in series [8] and in series [9] was greater than 64 µg/mL throughout.

As to `O=C(/C=C/c1cccc([N+](=O)[O-])c1)c1ccc(Nc2nc3ccccc3o2)cc1`, the MIC in [1], in series [2], in [3], in series [4], in series [5] and in series [6] was greater than 64 µg/mL throughout. Besides, the MIC in series [7], in [8] and in series [9] was greater than 64 µg/mL each time.

As to `O=C(/C=C/c1ccc([N+](=O)[O-])cc1)c1ccc(Nc2nc3ccccc3o2)cc1`, the MIC in series [1] was 32 µg/mL (≈ 83 µM); in series [2], greater than 64 µg/mL; in series [3], greater than 64 µg/mL; in [4], greater than 64 µg/mL; in series [5], greater than 64 µg/mL; in series [6], greater than 64 µg/mL. In addition, the MIC in [7], in [8] and in series [9] was greater than 64 µg/mL each time.

Take `O=C(/C=C/c1ccccc1Cl)c1ccc(Nc2nc3ccccc3o2)cc1`: the MIC in series [1], in series [2], in [3], in [4], in series [5] and in series [6] was greater than 64 µg/mL each time. Also, the MIC in [7], in [8] and in series [9] was greater than 64 µg/mL each time.

On to `COc1cc(/C=C/C(=O)c2ccc(Nc3nc4cc(C(C)(C)C)ccc4o3)cc2)cc(OC)c1OC`, for which the MIC was 32 µg/mL (≈ 65.8 µM) in series [1]; greater than 64 µg/mL in series [2]; greater than 64 µg/mL in series [3]; greater than 64 µg/mL in series [4]; greater than 64 µg/mL in series [5]; greater than 64 µg/mL in series [6]. Also, the MIC in [7], in series [8] and in [9] was greater than 64 µg/mL in each case.

In the case of `O=C(/C=C/c1ccccc1Br)c1ccc(Nc2nc3ccccc3o2)cc1`, the MIC in [1], in series [2], in series [3], in [4], in series [5] and in series [6] was greater than 64 µg/mL throughout. In addition, the MIC in series [7], in series [8] and in series [9] was greater than 64 µg/mL throughout.

For `O=C(O)c1ccc(/C=C/C(=O)c2ccc(Nc3nc4ccccc4o3)cc2)cc1`, the minimal inhibitory concentration (MIC) in series [1], in series [2], in [3], in series [4], in [5] and in series [6] was greater than 64 µg/mL throughout. The MIC in series [7], in series [8] and in [9] was greater than 64 µg/mL in each case.

Regarding `COc1cc(/C=C/C(=O)c2cccc(Nc3nc4ccccc4o3)c2)cc(OC)c1OC`, the MIC in series [1] is 8 µg/mL (≈ 18.6 µM); in [2], greater than 64 µg/mL; in [3] it was greater than 64 µg/mL; in series [4], greater than 64 µg/mL; in series [5], greater than 64 µg/mL; in series [6], greater than 64 µg/mL. Further, the MIC in series [7], in series [8] and in series [9] was greater than 64 µg/mL throughout.

On to `O=C(/C=C/c1ccccc1F)c1ccc(Nc2nc3ccccc3o2)cc1`, for which the MIC in series [1], in series [2], in series [3], in series [4], in series [5] and in [6] was greater than 64 µg/mL in each case. The MIC in series [7], in series [8] and in series [9] was greater than 64 µg/mL each time.

Regarding `O=C(/C=C/c1cccc(Cl)c1)c1ccc(Nc2nc3ccccc3o2)cc1`, the MIC in series [1], in series [2], in [3], in [4], in series [5] and in series [6] was greater than 64 µg/mL throughout. In addition, the minimum inhibitory concentration (MIC) in [7], in series [8] and in series [9] was greater than 64 µg/mL each time.

Turning to `COc1ccc(OC)c(/C=C/C(=O)c2ccc(Nc3nc4ccccc4o3)cc2)c1`, the MIC in series [1], in series [2], in series [3], in series [4], in series [5] and in series [6] was greater than 64 µg/mL each time. Besides, the MIC in [7], in [8] and in series [9] was greater than 64 µg/mL throughout.

`COc1ccc(/C=C/C(=O)c2ccc(Nc3nc4ccccc4o3)cc2)cc1`: the MIC is 32 µg/mL (≈ 86.4 µM) in series [1]; greater than 64 µg/mL in series [2]; greater than 64 µg/mL in series [3]; greater than 64 µg/mL in [4]; greater than 64 µg/mL in [5]; greater than 64 µg/mL in [6]. The MIC in [7], in series [8] and in series [9] was greater than 64 µg/mL in each case.

For the origin of these results see ChEMBL document CHEMBL5143690, “Identification of nitrofuranylchalcone tethered benzoxazole-2-amines as potent inhibitors of drug resistant Mycobacterium tuberculosis demonstrating bactericidal efficacy” (Bioorg Med Chem, 2022).
